Data set [1] has as its system other UGT isoforms. Description: Incubation with recombinant human UGT isoforms: other isoforms. Format: in vitro ADME. As to conditions: recombinant UGT 2 μg/mL. The method, then:
Incubation of N-hydap (2.5 μM) with eight recombinant human CYP enzymes (CYP1A2, CYP2B6, CYP2C9, CYP2C19, CYP2D6, CYP3A4, CYP4A11 and CYP4F2) at three enzyme concentrations (2, 4, and 20 μg/mL) was conducted following the same procedure as described above for microsomes. Subsequently, incubation with N-hydap (1, 2.5, and 6 μM) and twelve recombinant human UGT isoforms (UGT1A1, UGT1A3, UGT1A4, UGT1A6, UGT1A7, UGT1A8, UGT1A9, UGT1A10, UGT2B4, UGT2B7, UGT2B15 and UGT2B17) was performed, with the enzyme concentration used at 2 μg/mL. All reactions were carried out in triplicate.

In data set [2] the test system is HLMs. The experiment in a line: Kinetics of N-hydap glucuronidation in HLMs. The data set is classed as in vitro ADME, human. As to conditions: HLM. The method, then: (§1) Various microsomes including HLMs, HKMs, HIMs, RLMs, RKMs, MLMs and MKMs were involved in CYP and UGT reactions of N-hydap. A typical CYP incubation mixture included 0.5 mg/mL microsomes protein, 3.3 mM glucose-6-phosphate, 3.3 mM MgCl2, 0.4 U/mL glucose-6-phosphate dehydrogenase, and N-hydap (1, 2.5, or 10 μM) in the 50 mM potassium phosphate buffer (KPI, pH 7.4). The incubation mixture was preincubated at 37 °C for 5 min, and the reaction was started by adding NADP to form a NADPH-regenerating system. Simultaneously, the classic UGT reaction system consisted of 50 mM KPI, 5 mM MgCl2, 0.5 mg/mL microsomes, 0.125 mg/mL alamethicin, and 5.25 mg/mL saccharolactone. The reaction was initiated after supplying UDPGA. The CYP and UGT mixtures were incubated at 37 °C in a shaking water bath (80 rpm) for 1.5 h to enhance metabolite formation. To terminate the reaction, an ice-cold solution of Tes (50 ng/mL, dissolved in methanol and used as an internal standard) was added to half of the mixture volume. […]
(§2) The substrate concentrations used for HLMs were 0.05, 0.5, 2, 2.5, 5, 10, 25, 50, and 100 μM. […] The rates of N-hydap-G by enzymes were expressed as nmol/mg/min, representing the amount of metabolites formed per minute per milligram of protein. Kinetic parameters were determined by analyzing the Eadie–Hofstee plots. […]

Data set [3] relates to HKMs. The experiment in a line: Kinetics of N-hydap glucuronidation in HKMs. Conditions: HKM. Format: in vitro ADME, human. How it is done: as §1, §2
The test system of data set [4] is HIMs. The experiment in a line: Kinetics of N-hydap glucuronidation in HIMs. The data set is classed as in vitro ADME, human. As to conditions: HIM. The method, then:
as §1, §2

Data set [5] concerns RLMs. Description: Kinetics of N-hydap glucuronidation in RLMs. As to conditions: RLM. Format: in vitro ADME, rat. How it is done: (§3) In this study, the rats were executed by drawing blood from the abdominal aorta and mice were sacrificed with cervical dislocation before the liver and kidneys were excised. The liver and kidneys were removed, and washed with chilled cleansing solution (contains 8 mM KH2PO4, 5.6 mM EDTA·K2·2H2O, 1 mM DTT and 229.6 μM PMSF), homogenized in a tissue homogenate buffer with a pH of 7.4, (consisting of […], 8 mM K2HPO4, 250 mM sucrose, 1 mM EDTA·K2·2H2O and 229.6 μM PMSF). Subsequently, the homogenate was centrifuged at 10,400 rpm at 4 °C for 15 min, and the supernatant was then centrifuged at 35,000 rpm at 4 °C for 60 min. A 250 mM sucrose buffer was added to the pellet to reconstitute and the resuspension was stored at − 80 °C until use. Microsome protein concentrations were measured by Omni-Easy™ Instant BCA Protein Assay Kit.
(§4) Various microsomes including HLMs, HKMs, HIMs, RLMs, RKMs, MLMs and MKMs were involved in CYP and UGT reactions of N-hydap. […]
as §2

The test system of data set [6] is RKMs. Description: Kinetics of N-hydap glucuronidation in RKMs. As to conditions: RKM. The data set is classed as in vitro ADME, rat. The method, then: as §3, §4, §2
Data set [7] deals with MLMs. Description: Kinetics of N-hydap glucuronidation in MLMs. Format: in vitro ADME, mouse. As to conditions: MLM. The method, then:
as §3, §4, §2

Data set [8] concerns MKMs. The experiment in a line: Kinetics of N-hydap glucuronidation in MKMs. The data set is classed as in vitro ADME, mouse. As to conditions: MKM. The method, then:
as §3, §4, §2

Data set [9] concerns the target T1, UGT1A1 (Homo sapiens, UniProt P22309).
T1 construct: purchased Cypex (Scotland, UK)
Description: Kinetics of N-hydap glucuronidation by recombinant UGT1A1. The data set is classed as in vitro ADME.

For data set [10], the target named is T2, UGT1A3 (Homo sapiens, UniProt P35503).
T2 construct: purchased Cypex (Scotland, UK)
The experiment in a line: Kinetics of N-hydap glucuronidation by recombinant UGT1A3. Format: in vitro ADME.

The nature of data set [11]: Pharmacokinetics studies in mice (plasma). The data set is classed as in vivo. As to conditions: mice. How it is done: Mice were fasted for 12 h with access to water before drug administration. N-Hydap was dissolved in a solution containing 50% methanol and water. Before administration, the drug was diluted with PBS to achieve concentrations of 5 mg/kg and 2 mg/kg for gastric gavage and tail vein administration, respectively. Blood samples (120 μL) were collected from the orbital venous plexus at 2, 5, 10, 15, 30, 60, 90, 120, 180, and 240 min after N-hydap administration. The blood samples were collected into heparinized micro-centrifuge tubes and immediately centrifuged at 8000 rpm for 5 min at 4 °C. Plasma samples were prepared by adding an internal standard (IS) solution, Tes to the samples, followed by vortexing. The mixtures were then centrifuged at 4 °C and 13,000 rpm for 15 min. The resulting supernatant was dried under vacuum for 3–4 h, and the dry powder was reconstituted with a solution of 50% methanol and water. Finally, the plasma samples were analyzed using LC–MS, following the previously described method.
DAS 2.0 was used to calculate pharmacokinetic parameters using the standard non-compartmental method. All results were presented as mean ± standard deviation and significant differences were analyzed using One-way ANOVA by GraphPad Prism 8. Statistical significance was defined as p < 0.05.

A short description of data set [12]: Distribution studies in mice organs. Format: in vivo. Conditions: 30 min and 4 h. How it is done: The heart, liver, spleen, lungs and kidneys were removed from mice after administering a dose of 5 mg/kg through oral gavage and 2 mg/kg through tail vein injection at 30 min and 240 min, followed by homogenization with normal saline. The resulting homogenate was centrifuged at 4 °C, 13,000 rpm for 20 min, and the supernatant was then mixed with the internal standard by vortexing. The mixtures were centrifuged at 4 °C, 13,000 rpm for 15 min. The resulting supernatant was then subjected to vacuum drying for 3–4 h. Lastly, the dried powder was reconstituted with a mixture of 50% methanol and water, and then centrifuged for LC–MS testing.

Details of data set [13]: method as in PMID 17513814. Conditions: 2nd-line therapy of SCLC; cited from earlier work.
The subject of data set [14] is SCLC. Further details: method as in PMID 33683919. Conditions: 3rd-line therapy of SCLC; cited from earlier work.
Substrate in data set [15]: CC1CCC2C(C=CC(C)C2C(=O)c2c(O)c(C3(O)CCC(O)C4OC43)cn(O)c2=O)C1
Description: Kinetics of N-hydap glucuronidation by recombinant UGT1A1. The data set is classed as in vitro ADME, human. As to conditions: other: glucuronidation, pH 7.4, 37.0 °C.

Substrate in data set [16]: CC1CCC2C(C=CC(C)C2C(=O)c2c(O)c(C3(O)CCC(O)C4OC43)cn(O)c2=O)C1
Description: Kinetics of N-hydap glucuronidation by recombinant UGT1A3. The data set is classed as in vitro ADME, human. As to conditions: other: glucuronidation, pH 7.4, 37.0 °C.

Consider `CC1CCC2C(C=CC(C)C2C(=O)c2c(O)c(C3(O)CCC(OC4OC(C(=O)O)C(O)C(O)C4O)C4OC43)cn(O)c2=O)C1` (stereo not shown) [N-hydap-G], for which the “glucuronide detected after incubation with other UGT isoforms” value in [1] was “negligible amount”. The Vmax in data set [2] was 5.126 ± 1.27 peak area ratio/min/mg; in data set [3], 7.210 ± 0.72 peak area ratio/min/mg; in data set [4] it was 1.020 ± 0.066 peak area ratio/min/mg; in [5], 0.0567 ± 0.0014 peak area ratio/min/mg; in data set [6], 0.8051 ± 0.052 peak area ratio/min/mg; in [7], 13.46 ± 1.32 peak area ratio/min/mg. Also, the Vmax in [8] is 3.313 ± 0.51 peak area ratio/min/mg; in data set [9], 4.596 ± 0.37 peak area ratio/min/mg; in data set [10], 10.07 ± 0.98 peak area ratio/min/mg. Also, the “highest concentration in plasma, Rate (Am/Ai)” value came out at 1.632 in data set [11] (after oral administration of N-hydap 5 mg/kg) and 0.085 in [11] (after tail vein injection of N-hydap 2 mg/kg). Besides, the “maximum plasma concentration after oral gavage relative to intravenous injection, dose-corrected” value in data set [11] (1.632/0.085/2.5) was determined as 7.68 times. The “total distribution ratio, heart” value in [12] (oral 5 mg/kg) was 2.61%; in [12] (tail vein injection 2 mg/kg), 11.92%. Also, the “total distribution ratio, kidneys” value in data set [12] (oral 5 mg/kg) is given as 17.64%; in data set [12] (tail vein injection 2 mg/kg) it was 16.73%. Besides, the “total distribution ratio, liver” value in [12] (oral 5 mg/kg) is reported as 70.86%; in data set [12] (tail vein injection 2 mg/kg), 56.90%. In addition, the entries for the “total distribution ratio, lungs” value in data set [12] (oral 5 mg/kg) and in [12] (tail vein injection 2 mg/kg) were 7.33% and 9.14%, respectively. In addition, the “total distribution ratio, spleen” value is recorded as 1.56% in data set [12] (oral 5 mg/kg) and 5.31% in data set [12] (tail vein injection 2 mg/kg).

In the case of `CC[C@@]1(O)C(=O)OCc2c1cc1n(c2=O)Cc2cc3c(CN(C)C)c(O)ccc3nc2-1` [topotecan], in [13], the “grade 3/4 anemia” value is listed as 31%, the neutropenia is on record as 64% and the thrombocytopenia is given as 18%.

Consider nivolumab: 3rd-line therapy for SCLC, for which the overall survival entry in data set [14] is listed as “does not prolong overall survival”.

B1: UGT1A1 (Homo sapiens) (protein)
chain: HAGKILLIPVDGSHWLSMLGAIQQLQQRGHEIVVLAPDASLYIRDGAFYTLKTYPVPFQREDVKESFVSLGHNVFENDSFLQRVIKTYKKIKKDSAMLLSGCSHLLHNKELMASLAESSFDVMLTDPFLPCSPIVAQYLSLPTVFFLHALPCSLEFEATQCPNPFSYVPRPLSSHSDHMTFLQRVKNMLIAFSQNFLCDVVYSPYATLASEFLQREVTVQDLLSSASVWLFRSDFVKDYPRPIMPNMVFVGGINCLHQNPLSQEFEAYINASGEHGIVVFSLGSMVSEIPEKKAMAIADALGKIPQTVLWRYTGTRPSNLANNTILVKWLPQNDLLGHPMTRAFITHAGSHGVYESICNGVPMVMMPLFGDQMDNAKRMETKGAGVTLNVLEMTSEDLENALKAVINDKSYKENIMRLSSLHKDRPVEPLDLAVFWVEFVMRHKGAPHLRPAAHDLTWYQYHSLDVIGFLLAVVLTVAFITFKCCAYGYRKCLGKKGRVKKAHKSKTH
notes: purchased Cypex (Scotland, UK)
By Km is commonly meant the concentration of substrate that gives half-maximal velocity. Turning to B1, in data set [15], the Km is 46.43 µM and the Vmax/Km is 99.0 µL/min/mg.

B2: UGT1A3 (Homo sapiens) (protein)
chain: GKVLVVPIDGSHWLSMREVLRELHARGHQAVVLTPEVNMHIKEENFFTLTTYAISWTQDEFDRHVLGHTQLYFETEHFLKKFFRSMAMLNNMSLVYHRSCVELLHNEALIRHLNATSFDVVLTDPVNLCAAVLAKYLSIPTVFFLRNIPCDLDFKGTQCPNPSSYIPRLLTTNSDHMTFMQRVKNMLYPLALSYICHAFSAPYASLASELFQREVSVVDILSHASVWLFRGDFVMDYPRPIMPNMVFIGGINCANRKPLSQEFEAYINASGEHGIVVFSLGSMVSEIPEKKAMAIADALGKIPQTVLWRYTGTRPSNLANNTILVKWLPQNDLLGHPMTRAFITHAGSHGVYESICNGVPMVMMPLFGDQMDNAKRMETKGAGVTLNVLEMTSEDLENALKAVINDKSYKENIMRLSSLHKDRPVEPLDLAVFWVEFVMRHKGAPHLRPAAHDLTWYQYHSLDVIGFLLAVVLTVAFITFKCCAYGYRKCLGKKGRVKKAHKSKTH
notes: as for B1
Take B2: in data set [16], the Km amounted to 10.68 µM and the Vmax/Km was found to be 942.9 µL/min/mg.

Source of the values: paper PMC11109052, “Metabolism characterization and toxicity of N-hydap, a marine candidate drug for lung cancer therapy by LC–MS method” (Natural Products and Bioprospecting, 2024).
